Where two headings read alike, the source gives them in different places.
Assays:
[1] = target: T1, human non-inactivating proton-gated ion channel hASIC3 (homomeric channels), SEQ ID No. 2 (Homo sapiens, UniProt Q9UHC3); experiment: Two-electrode voltage clamp of proton-induced currents in Xenopus oocytes expressing the channel; type: cell-based; conditions: for remaining activity at 100 µM: 100 µM amiloride, currents activated by pH 4.0, mean +/- SEM (n= 17); for inhibition at 100 µM: co-application of 100 micro M amiloride with pH 4.0, biphasic response, hASIC3 in Xenopus oocytes
T1 sequence (Q9UHC3 1-531): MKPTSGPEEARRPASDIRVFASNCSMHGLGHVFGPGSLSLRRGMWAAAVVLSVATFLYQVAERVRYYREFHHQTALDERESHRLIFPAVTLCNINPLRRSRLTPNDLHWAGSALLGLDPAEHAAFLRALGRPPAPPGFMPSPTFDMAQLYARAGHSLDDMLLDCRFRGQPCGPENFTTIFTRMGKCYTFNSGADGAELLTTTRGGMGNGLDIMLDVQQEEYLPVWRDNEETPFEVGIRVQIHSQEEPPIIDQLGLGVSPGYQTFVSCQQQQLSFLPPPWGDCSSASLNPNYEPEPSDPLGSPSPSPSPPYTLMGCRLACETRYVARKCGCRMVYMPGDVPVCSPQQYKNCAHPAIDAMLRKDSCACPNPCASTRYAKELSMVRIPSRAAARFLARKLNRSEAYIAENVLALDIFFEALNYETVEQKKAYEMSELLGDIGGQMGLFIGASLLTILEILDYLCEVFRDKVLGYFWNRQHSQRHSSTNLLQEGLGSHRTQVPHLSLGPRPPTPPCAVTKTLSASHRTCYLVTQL
Method: Oocytes surgically removed from adult Xenopus laevis were treated for 2 h at room temperature with type II collagenase (Gibco-BRL) in Barth's solution under constant agitation. Selected oocytes at stage IV-V were defolliculated manually before nuclear micro-injections (Bertrand et al., 1991) of 5 ng of hASlC3 in pcDNA3 vector. After 2-4 days of expression at 19^-C in Barth's solution containing 50Êg/ml gentamycin, currents were recorded in the two-electrode voltage clamp configuration using an OC-725B amplifier (Warner Instruments). Whole cell currents were acquired and digitized at 500 Hz on a Macintosh IIci computer with an A/D NB-MIO16XL interface (National Instruments) then recorded traces were post-filtered at 100 Hz in Axograph (Axon Instruments). Agonist, amiloride and wash solutions were prepared in a modified Ringer's solution containing 115 mM NaCl, 2.5 mM KCI, 1.8 mM CaCl2 in 5-20 mM HEPES (Sigma) buffer adjusted with NaOH or HCl at pH 2 to 8 and applied on oocytes by constant perfusion (10-12 ml/min) at room temperature. Mean values ± SEM corresponded to measurements from a minimum of 5 oocytes.

[2] = target: rat P2x2 (ATP-gated ion channel subunit) (rat) (UniProt P49653); experiment: cell-based or functional assay
[3] = target: hASIC3 (human non-inactivating amiloride-sensitive proton-gated ion channel subunit) (human); experiment: cell-based or functional assay

Sequence of rat P2x2 (ATP-gated ion channel subunit) (rat) (P49653 whole entry): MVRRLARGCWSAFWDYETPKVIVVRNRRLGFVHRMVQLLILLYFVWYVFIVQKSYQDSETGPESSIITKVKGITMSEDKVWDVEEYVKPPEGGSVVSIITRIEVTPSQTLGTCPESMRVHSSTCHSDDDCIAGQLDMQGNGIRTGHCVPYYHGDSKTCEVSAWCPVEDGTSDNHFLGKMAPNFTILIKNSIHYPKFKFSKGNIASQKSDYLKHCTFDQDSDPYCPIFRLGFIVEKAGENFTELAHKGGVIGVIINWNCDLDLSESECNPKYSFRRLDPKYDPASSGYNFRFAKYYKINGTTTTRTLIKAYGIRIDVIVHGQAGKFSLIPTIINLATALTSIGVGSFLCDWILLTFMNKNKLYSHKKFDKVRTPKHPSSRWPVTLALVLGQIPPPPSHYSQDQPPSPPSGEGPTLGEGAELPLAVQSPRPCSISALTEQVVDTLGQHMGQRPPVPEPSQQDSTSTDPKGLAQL

N=C(N)NC(=O)c1nc(Cl)c(N)nc1N [amiloride] showed a remaining activity at 100 µM ([1]; read-out: residual peak currents during amiloride application, fast component, expressed as percent of controls) of 37.2 ± 6.4%, a remaining activity at 100 µM ([1]; read-out: residual peak currents during amiloride application, sustained component, expressed as percent of controls) of 72 ± 3.8% and an inhibition at 100 µM ([1]; read-out: blockade of the fast current by amiloride) of 62.8 ± 6.5%. The inhibition at 100 µM ([1]; read-out: blockade of the slow current by amiloride) was 28.7 ± 4.6%.
With “hASIC3 (human non-inactivating amiloride-sensitive proton-gated ion channel subunit)” the inward currents in Xenopus oocytes coinjected with hASIC3 and P2x2 (two-electrode voltage clamp), activating pH [2] was 6.5 pH, the non-inactivating cation current induced by weak acid in Xenopus oocytes coinjected with hASIC3 clone and rat P2x2 clone [2] was 6.5 pH and the non-inactivating cationic current induced by strong acid in Xenopus oocytes injected with the hASIC3 clone alone [3] was 4 pH.
